Key:
[1] = test system: men with alopecia (proportion of hair in the telogen phase greater than 15%); test: Anti-hair loss study by videotrichogram on volunteers with alopecia; type: in vivo, human; details: used as active ingredient in an anti-hair loss composition already containing Lentinus edodes extract, procyanidolic oligomers and Cananga odorata essential oil
Source text: The anti-ageing effect on the epidermis was confirmed in vivo in a study relating to the anti-hair loss properties of (2S,3R,4S)-4-hydroxyisoleucine carried out on volunteer subjects affected by alopecia, having a proportion of hair in the telogen phase greater than […] 15%. […] This anti-hair loss composition is described in application FR 2 776 184 of which the applicant is proprietor. It contains an aqueous extract of the mushroom Lentinus edodes rich in 1,3-β-D-1,6-β-D-glucan, procyanidolic oligomers extracted from grapeseed cuticle, and essential oil extracted from the flowers of Cananga odorata. […]
This study was carried out on a sample of 25 volunteers for each composition tested. The only people included in the study were men from 20 to 50 years old (average age of each group 37 years) with alopecia, that is to say having a proportion of hair in the telogen phase, determined by videotrichogram, greater than 15%.
The apparatus used is a videomicroscope equipped with a ×25 lens, which is mobile and optical fibre-based, linked to a computer system for image acquisition. The lens is placed directly over the zone to be studied, the image is digitized, recorded and analysed with the aid of a specific software (COUNTHAIR®) developed by the company DERMSCAN which makes it possible to count the hair strands and to measure their length. […]

[2] = test system: Bullous Pemphigoid Antigen 1 (BPAG-1); test: cDNA-macroarrays confirmed by quantitative RT-PCR on messenger RNAs of epidermal cells: BPAG-1 expression; type: cell-based
[3] = test system: Cellular Retinoic Acid Binding Protein (CRAB-P-2); test: cDNA-macroarrays confirmed by quantitative RT-PCR on messenger RNAs of epidermal cells: CRAB-P-2 expression; type: cell-based
[4] = test system: JL1-R1 receptor; test: cDNA-macroarrays confirmed by quantitative RT-PCR on messenger RNAs of epidermal cells: JL1-R1 receptor expression; type: cell-based
[5] = test system: TNS & CRAB-2 receptors; test: cDNA-macroarrays confirmed by quantitative RT-PCR on messenger RNAs of epidermal cells: TNS & CRAB-2 receptor expression; type: cell-based

C[C@@H]([C@H](C)O)[C@H](N)C(=O)O [(2S,3R,4S)-4-hydroxyisoleucine]
anti-hair loss properties [1]: particularly effective | expression of Bullous Pemphigoid Antigen 1 (BPAG-1) [2]: significant overexpression | expression of Cellular Retinoic Acid Binding Protein (CRAB-P-2) [3]: significant underexpression | expression of the JL1-R1 receptor [4]: significant overexpression | expression of the TNS & CRAB-2 receptors [5]: decrease in the expression

— patent US20050019357A1, “(2S,3R,4S)-4-hydroxyisoleucine-containing cosmetic compositions and methods of application” (Caster, priority 2003, published 2005)
